pKd: −log10 of the molar value. No end group written: not given here.
Legend:
[1] = target: T1, thromboplastin (Homo sapiens, UniProt P13726); experiment: Time-course inhibition of thromboplastin procoagulant activity (one-stage prothrombin time and two-stage amidolytic assay); type: biochemical; conditions: 500 nM, thromboplastin 100 nM (10 U/ml), 37° C.
T1 construct: purchased Gamidor Ltd. (Oxfordshire, U.K.)
Procedure: The one stage prothrombin time assay was carried out by the addition of 100 μl of the sample to 100 μl of 25 mM CaCl2 solution and incubation prior to addition of 100 μl of control plasma. The clotting time was measured on the coagulometer. The two-stage amidolytic assay was carried according to published procedures. In all cases the thromboplastin activity was calculated from a standard curve prepared previously and the percentage inhibition was calculated as 100×[…].
The apolipoprotein B-100 control peptide (fragment 3358-3372) containing the sequence TRLTRKRGLKLATAL was reconstituted in distilled water to 1 mM. The freeze-dried samples were reconstituted in distilled water to a concentration of 1 mM. Two 200 μl samples of thromboplastin (10 U/ml) were incubated with 500 nM KRAD-14 or apolipoprotein B-100 control peptide at 37° C. for 45 min. Another set of 200 μl samples of thromboplastin (10 U/ml) were incubated with either 500 nM KRAD-98 or the chloramphenicol acetyltransferase control protein. […] Following the incubation the thromboplastin activity in all the samples was measured by means of the one-stage prothrombin time assay and the two-stage amidolytic assay and the percentage inhibition calculated against the control containing distilled water.
The above experiments were repeated using 1 ml samples containing recombinant thromboplastin (10 U/ml) mixed with either 500 nM KRAD-14, 500 nM KRAD-98 or 500 nM apolipoprotein B-100, reconstituted as described before. The concentrations used are equivalent to that of apolipoprotein B-100 in normal plasma. 100 μl of the each sample was removed immediately and assayed for thromboplastin activity, by means of the one-stage prothrombin time assay. The rest of the samples were incubated at 37° C. and further 100 μl samples were removed at intervals up to 120 min and measured as before. The percentage inhibition was calculated against a control sample of thromboplastin.
Three 1 ml samples containing recombinant thromboplastin (10 U/ml) were mixed with 500 nM KRAD-14 (solid square), 500 nM KRAD-98 (open square) or 500 nM apolipoprotein […] (triangle), reconstituted as described before. The concentrations used are equivalent to that of apolipoprotein B-100 in normal plasma. 100 μl of the each sample was removed immediately and assayed for thromboplastin activity, by means of the one-stage prothrombin time assay. The rest of the samples were incubated at 37° C. and further 100 μl samples were removed at intervals up to 120 min and measured as before. The thromboplastin activity was calculated from a standard curve prepared previously and the percentage inhibition was calculated as 100×[…]. The curves are typical of data from four sets of experiments.

[2] = tested on: platelets; experiment: Activation of platelets by thrombin; type: cell-based
[3] = target: T1, thromboplastin; experiment: Effect of KRAD-14 concentration on thromboplastin inhibition (one-stage prothrombin time assay); type: biochemical
Procedure: The synthetic KRAD-14 peptide was reconstituted in distilled water at 1 mM. Aliquots of recombinant thromboplastin were incubated, at 37° C. with a KRAD-14 at concentration range 10-5000 nM (final concentration) for 1 min prior to assaying using the one-stage prothrombin time assay. In addition, samples of thromboplastin (10 U/ml) were incubated with synthetic KRAD-14 at concentrations ranging from 1-100 μM (final concentration) prior to assaying using the one-stage prothrombin time assay.
Aliquots of recombinant thromboplastin were incubated, at 37° C. with a KRAD-14 at concentration range 10-5000 nM (final concentration) for 1 min prior to assaying using the one-stage prothrombin time assay. The percentage inhibition was calculated as 100×([…])/Initial activity. The experiment was performed in triplicate.
Samples of thromboplastin (10 U/ml) were incubated with synthetic KRAD-14 concentration ranging 1-100 μM (final concentration) prior to assaying using the one-stage prothrombin time assay. The percentage inhibition was calculated as 100×([…])/Initial activity. The experiment was performed in triplicate.
Aliquots (1 ml) of recombinant thromboplastin (100 nM) were incubated at 37° C. with a KRAD-14 peptide at concentration range 50 (♦), 100 (▾), 200 (▪), 300 (⋄) and 500 nM (□) (final concentration). 100 μl of the each sample was removed immediately and assayed for thromboplastin activity, by means of the one-stage prothrombin time assay. The rest of the samples were incubated at 37° C. and further 100 μl samples were removed at intervals up to 40 min and measured. The percentage inhibition was calculated as 100×(Initial activity-Residual activity)/Initial activity. The data were obtained from 3 separate experiments.

[4] = target: T1, thromboplastin; experiment: Stability of the inhibitory effect of KRAD-14 following reconstitution; type: physicochemical
Procedure: However, KRAD-14 was effective at concentration as low as 50 nM. Moreover, the inhibition was unstable and completely disappeared after approximately 8 min following reconstitution. This deterioration was partially stabilised by adjusting the pH and addition of 5 nM bovine serum albumin as a stabiliser. However, the inhibitory effect deteriorated rapidly, completely disappearing after 15 min, following reconstitution.

[5] = target: T1, thromboplastin; experiment: Inhibition of thromboplastin in the presence of plasma; type: biochemical
Procedure: […] The samples were then assayed by addition of 100 μl of […] CaCl2 solution and measurement on the coagulometer. The percentage inhibition in each case calculated against a similarly treated sample, containing thromboplastin only.

[6] = target: thrombin (Homo sapiens, UniProt P00734); experiment: Influence on thrombin activity (amidolytic and clotting); type: biochemical; conditions: 500 nM peptide, thrombin 100 nM
Procedure: Samples (1 ml) of either KRAD-14 peptide (500 nM) or each of the control peptides (500 nM) were incubated with thrombin (100 nM) at 37° C. and the thrombin activity measured at the beginning and at intervals up to 60 min as follows. The enzymatic activity of thrombin was measured by the addition of 100 μl aliquots to 0.45 ml of thrombin substrate (N-benzoyl-phe-val-arg-p-nitroanilide) (0.26 mM) which was then incubated at 37° C. for exactly 10 min, before the addition of 0.45 ml of 20% (w/v) acetic acid. The absorption was measured at 405 nm against a thrombin (100 nM) control assayed similarly. The procoagulant activity of thrombin was measured by the addition of 100 μl of the sample to control plasma (100 μl) and 25 mM CaCl2 solution and measuring the clotting time. A thrombin 100 nM) control was included in the assay against which comparisons were made.

T1 sequence (P13726 33-295): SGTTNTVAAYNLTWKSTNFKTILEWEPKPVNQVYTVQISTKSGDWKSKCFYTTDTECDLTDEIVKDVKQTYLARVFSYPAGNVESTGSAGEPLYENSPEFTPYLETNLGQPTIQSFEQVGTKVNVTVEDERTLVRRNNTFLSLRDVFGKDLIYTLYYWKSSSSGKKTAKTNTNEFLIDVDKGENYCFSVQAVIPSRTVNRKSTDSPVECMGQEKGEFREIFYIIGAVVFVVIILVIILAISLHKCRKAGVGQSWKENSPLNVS

Q: Which inhibition at 0.5 µM ([1]; 2 min incubation) does the source give for KAQSKKNKHRHSTT [KRAD-14] here?
A: 90%

Q: What about the inhibition at 0.5 µM ([1]; 4 min incubation (maximum)) of the same sequence?
A: 98%

Q: What about the “effect on the activation of platelets by thrombin” value [2] of the same sequence?
A: seems to affect the activation of platelets by thrombin

Q: And the “lowest concentration effective in inhibiting thromboplastin” value ([3]; 1 min preincubation at 37° C.)?
A: 50 nM

Q: And the “inhibition of thromboplastin compared with the recombinant peptide (in words)” value ([3]; synthetic peptide)?
A: inhibitory towards thromboplastin with similar effectiveness as the recombinant peptide

Q: What about the pKd ([3]; thromboplastin 100 nM, KRAD-14 peptide 1-5000 nM, 1 min at 37° C., read-out: Kdapp, inhibition of thromboplastin) of the same sequence?
A: 7.43

Q: And the “time after reconstitution at which the inhibition completely disappeared” value ([4]; no stabiliser)?
A: approximately 8 min

Q: And the “time after reconstitution at which the inhibitory effect completely disappeared” value ([4]; pH adjusted and 5 nM bovine serum albumin added as a stabiliser)?
A: 15 min

Q: What about the “influence of plasma on the ability to inhibit thromboplastin activity (in words)” value ([5]; plasma included during the incubation prior to assaying, peptide 500 nM) of the same sequence?
A: did not significantly affect

Q: What about the “inhibition of thromboplastin activity in the presence of plasma” value ([5]; plasma present, 37° C., 2 min incubation) of the same sequence?
A: 74%

Q: And the “effect on the amidolytic proteolytic activity of thrombin” value [6]?
A: did not affect

Q: And the “effect on the clotting ability of thrombin” value [6]?
A: did not affect

From US6444644B1, “Anticoagulant peptide fragments derived from apolipoprotein B-100” (University College London, priority 1996, dated 2002)
